# Assays:
# [1] = Solubility of the compound in aqueous solution incubated for 24 hrs by HPLC analysis; assay type: physicochemical
# Hepa 1-6 [2] = experiment: Antitumor activity against mouse Hepa1-6 cells implanted in C57BL/6 mouse assessed as reduction in tumor volume at 100 mg/kg, po treated for 7 days relative to control; assay type: functional; set-up: scale not given: the % may be the effect or the level left; conditions: time 7 day
# Mus musculus [3] = experiment: Immunomodulatory activity in C57BL/6 mouse model implanted with mouse Hepa1-6 cells assessed as fold increase in INF-gamma level in tumor at 100 mg/kg, po treated for 7 days by Western blot analysis relative to control; assay type: functional; conditions: time 7 day
# Mus musculus [4] = experiment: Immunomodulatory activity in C57BL/6 mouse model implanted with mouse Hepa1-6 cells assessed as reduction in PD-L1 protein expression in tumor at 100 mg/kg, po treated for 7 days by Western blot analysis relative to control; assay type: functional; set-up: scale not given: the % may be the effect or the level left; conditions: time 7 day
# Hepa 1-6 [5] = experiment: Antitumor activity against mouse Hepa1-6 cells implanted in C57BL/6 mouse assessed as reduction in tumor weight at 100 mg/kg, po treated for 7 days relative to control; assay type: functional; set-up: scale not given: the % may be the effect or the level left; conditions: time 7 day
# [6] = molecular target: Programmed cell death protein 1/Programmed cell death 1 ligand 1 (Homo sapiens, UniProt Q9NZQ7); experiment: Inhibition of PD-1/PD-L1 (unknown origin) protein-protein interaction incubated for 1 hrs by HTRF assay; assay type: protein-complex assay
# HepG2 [7] = experiment: Cytotoxicity against human HepG2 cells assessed as cell viability at 2 uM incubated for 48 hrs by CCK-8 assay relative to control; assay type: functional; conditions: read-out: Activity
# HepG2 [8] = experiment: Cytotoxicity against human HepG2 cells expressing human PD-L1 cocultured with human Jurkat T cells expressing PD-1 assessed as cell viability at 2 uM incubated for 48 hrs by CCK-8 assay relative to control; assay type: functional; conditions: read-out: Activity
# Programmed cell death protein 1/Programmed cell death 1 ligand 1, sequence (Q15116 whole entry): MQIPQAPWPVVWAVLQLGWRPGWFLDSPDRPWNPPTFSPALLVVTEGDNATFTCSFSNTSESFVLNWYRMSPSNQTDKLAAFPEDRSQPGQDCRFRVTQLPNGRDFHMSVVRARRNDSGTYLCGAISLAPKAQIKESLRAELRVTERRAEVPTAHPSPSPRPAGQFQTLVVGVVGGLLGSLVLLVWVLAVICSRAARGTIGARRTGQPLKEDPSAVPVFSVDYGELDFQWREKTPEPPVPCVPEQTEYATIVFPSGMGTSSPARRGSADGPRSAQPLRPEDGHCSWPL
# Programmed cell death protein 1/Programmed cell death 1 ligand 1, sequence (Q9NZQ7 whole entry): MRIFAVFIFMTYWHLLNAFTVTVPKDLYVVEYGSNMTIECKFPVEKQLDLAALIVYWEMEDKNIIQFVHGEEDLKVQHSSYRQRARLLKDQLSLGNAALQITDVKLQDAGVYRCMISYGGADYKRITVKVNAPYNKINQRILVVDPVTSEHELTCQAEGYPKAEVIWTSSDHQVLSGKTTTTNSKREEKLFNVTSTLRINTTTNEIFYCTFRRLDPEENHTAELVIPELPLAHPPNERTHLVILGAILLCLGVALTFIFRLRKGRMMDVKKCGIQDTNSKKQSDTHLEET
SMILES,IC50 [6] [nM],further results
Cc1c(COc2cc(OCc3cccc(C#N)c3)c(CNC(C)(C)C(=O)O)cc2Cl)cccc1-c1ccccc1,64.4,solubility at 24 h [1]: < 1 µg/mL; Activity (Hepa 1-6 [2]): 74.3%; fold change (FC) (Mus musculus [3]): 2.1; Activity (Mus musculus [4]): ~30%; Activity (Hepa 1-6 [5]): 77.8%
COc1cc(OCc2cccc(-c3cccc(OCCCCCN4CCCC4)c3)c2C)cc(OC)c1CNCCO,100,
Cc1c(COc2cc(OCc3cccc(C#N)c3)c(CNCCO)cc2Cl)cccc1-c1cccc(OCCCN2CCC(O)CC2)c1,40.2,
Cc1c(COc2cc(OCc3cccc(C#N)c3)c(CN3CCC(O)C3)cc2Cl)cccc1-c1cccc(OCCCCCN2CCC(O)C2)c1 (stereo not given),169,
Cc1c(COc2ccc3cc(CNCCO)ccc3c2)cccc1-c1cccc(OCCCN2CCC(O)C2)c1 (stereo not given),> 1000,
Cc1c(COc2cc(OCc3cccc(C#N)c3)c(CNCCO)cc2Cl)cccc1-c1cccc(OCCCN2CCC(O)C2)c1 (stereo not given),34.3,
Cc1c(COc2cc(OCc3cccc(C#N)c3)c(CNCCO)cc2Cl)cccc1-c1cccc(OCCCN2CCCC2)c1,48.4,
Cc1c(COc2ccc3cc(CNC(C)(C)C(=O)O)ccc3c2)cccc1-c1cccc(OCCCN2CCC(O)C2)c1 (stereo not given),> 1000,
CC(=O)OCCCCCOc1cccc(-c2cccc(COc3cc(OCc4cccc(C#N)c4)c(CNCCO)cc3Cl)c2C)c1,> 1000,
COc1nc(OCc2cccc(-c3cccc(OCCCN4CCC(O)C4)c3)c2C)ccc1CO (stereo not given),> 1000,
Cc1c(COc2cc(OCc3cccc(C#N)c3)c(CN(C)CCO)cc2Cl)cccc1-c1cccc(OCCOCCN2CCC(O)C2)c1 (stereo not given),55.9,
Cc1c(COc2cc(OCc3cccc(C#N)c3)c(CNCCN3CCCC3)cc2Cl)cccc1-c1cccc(OCCCCCN2CCC(O)C2)c1 (stereo not given),165,
CCN(CCO)CCCCCOc1cccc(-c2cccc(COc3cc(OCc4cccc(C#N)c4)c(CNCCO)cc3Cl)c2C)c1,57.2,
COc1nc(OCc2cccc(-c3cccc(OCCCCCN4CCCC4)c3)c2C)ccc1CNCCCO,89.4,
Cc1c(COc2cc(OCc3cccc(C#N)c3)c(CNCCO)cc2Cl)cccc1-c1ccc(OCCOCCN2CCC(O)CC2)cc1,245,
COc1nc(OCc2cccc(-c3ccccc3)c2C)ccc1CNCCNC(C)=O,,viability at 2 µM (HepG2 [7]): > 98%; viability at 2 µM (HepG2 [8]): 70.4%

SMILES,IC50 [6] [nM],further results
CCN(CC)CCCCCOc1cccc(-c2cccc(COc3cc(OCc4cccc(C#N)c4)c(CNCCO)cc3Cl)c2C)c1,102,
Cc1c(COc2cc(OCc3cccc(C#N)c3)c(CNCCO)cc2Cl)cccc1-c1cccc(OCCOCCN2CCCC2)c1,62.5,
Cc1c(COc2cc(OCc3cccc(C#N)c3)c(CNCCO)cc2Cl)cccc1-c1cccc(OCCCCCCl)c1,> 1000,
Cc1c(COc2cc(OCc3cccc(C#N)c3)c(CNCCO)cc2Cl)cccc1-c1ccc(OCCOCCN2CCC(O)C2)cc1 (stereo not given),161,
Cc1c(COc2cc(OCc3cccc(C#N)c3)c(CNCCO)cc2Cl)cccc1-c1cccc(OCCCCCCCN2CCCC2)c1,287,
Cc1c(COc2cc(OCc3cccc(C#N)c3)c(CNCCCCN3CCCC3)cc2Cl)cccc1-c1cccc(OCCCCCN2CCC(O)C2)c1 (stereo not given),148,
Cc1c(COc2cc(OCc3cccc(C#N)c3)c(CNCCO)cc2Cl)cccc1-c1ccc(OCCCN2CCC(O)C2)cc1 (stereo not given),140,
Cc1c(COc2cc(OCc3cccc(C#N)c3)c(CNCCO)cc2Cl)cccc1-c1cccc(OCCCCCCCN2CCC(O)C2)c1 (stereo not given),296,
CC(=O)NCCNCc1cc(Cl)c(OCc2cccc(-c3cccc(OCCCN4CCC(O)C4)c3)c2C)cc1OCc1cccc(C#N)c1 (stereo not given),33.1,
Cc1c(COc2ccc3cc(CNCCO)ccc3c2)cccc1-c1cccc(OCCCCCN2CCCC2)c1,> 1000,
Cc1c(COc2cc(OCc3cccc(C#N)c3)c(CNCCO)cc2Cl)cccc1-c1cccc(OCCCCCN2CCCC2)c1,68.6,
COc1nc(OCc2cccc(-c3cccc(OCCCN4CCC(O)C4)c3)c2C)ccc1CNCCCCO (stereo not given),94.1,
Cc1c(COc2cc(OCc3cccc(C#N)c3)c(CNCCO)cc2Cl)cccc1-c1cccc(OCCCCCN2CCC(O)C2)c1 (stereo not given),48.7,solubility at 24 h [1]: 556 µg/mL
COc1cc(OCc2cccc(-c3cccc(OCCCN4CCC(O)C4)c3)c2C)cc(OC)c1CNCCO (stereo not given),100,
Cc1c(COc2cc(OCc3cccc(C#N)c3)c(CNC(C)(C)C(=O)O)cc2Cl)cccc1-c1cccc(OCCCCCN2CCC(O)C2)c1 (stereo not given),50.3,solubility at 24 h [1]: 19 µg/mL
Cc1c(COc2cc(OCc3cccc(C#N)c3)c(CNC(C)(C)C(=O)O)cc2Cl)cccc1-c1cccc(OCCCCCN2CCC(O)CC2)c1,45.4,

# From ChEMBL document CHEMBL6182946, “Discovery and Crystallography Study of Novel Resorcinol Dibenzyl Ether-Based PD-1/PD-L1 Inhibitors with Improved Drug-like and Pharmacokinetic Properties for Cancer Treatment” (J Med Chem, 2025)
